From patent publication US20260000783A1, “ANTIBODY-DRUG CONJUGATE WITH IMPROVED THERAPEUTIC WINDOW” (priority 2018, published 2026) come the findings set out here.

Experiment [1] has as its system Hela cells. Briefly: Cell viability assay (MTS) of HeLa cells with SO1861 + dianthin-EGF and PAMAM, PAMAM-conjugates, G4-dendron or chloroquine. To be noted: positive control. Type of experiment: cell-based, human. As to the method: Hela cells were seeded in DMEM (PAN-Biotech GmbH) supplemented with 10% fetal bovine serum (PAN-Biotech GmbH) and 1% penicillin/streptomycin (PAN-Biotech GmbH), in a 96 well plate at 5,000 c/w in 100 μL/well and incubated overnight at 37° C. and 5% CO2. The next day 20× concentrated stocks of the PAMAM, PAMAM-conjugates, G4-dendron (prepared in Example 3) or chloroquine (Sigma Aldrich) samples were prepared in DMEM. The media was removed from the cell culture plate and replaced by 160 μL culture media, followed by the addition of 10 μL sample/well (from the 20× concentrated stocks) and a 45 min incubation at 37° C. […] Followed by 15 sec sonication and a brief re-heating at 50° C. for 1 min, while shaking at 1,250 rpm. Subsequently a serial dilution of SO1861 was prepared in PBS.
Scientific Multiskan FC plate reader (Thermo Scientific).

The subject of experiment [2] is SK-BR-3, JIMT-1, MDA-MB-468, A431, CaSKi, HeLa, A2058. Briefly: Control treatments on all cell lines, relative cell viability (Example 8). Type of experiment: cell-based, human. To be noted: wide range of toxin concentrations, up to 100.000 pM (FIG. 14D).

As to `CCN(CC)CCCC(C)Nc1ccnc2cc(Cl)ccc12` (centres unmarked) [Chloroquine], in experiment [1], the “fold increase in glycoside amount to observe 50% cell killing” value was found to be 2 fold.

For saporin, the relative cell viability entry in experiment [2] is given as “do not or hardly have any influence on cell viability”.
